Laboratory results as given in patent publication US20060211887A1, “Phosphate salts of 6-dimethylaminomethyl-1-(3-methoxyphenyl)-1,3-dihydroxy-cyclohexane compounds” (priority 2005, published 2006).
Structures can show the parent of a compound that is named as a salt.

Assays:
Format in all cases: physicochemical
[1] = DVS (dynamic vapor sorption) experiment on the amorphous phosphate salt
Excerpt: The amorphous phosphate salt of I crystallized during a DVS (dynamic vapor sorption) experiment at a relative atmospheric humidity of 45% r.h.

[2] = Storage of the amorphous phosphate salt at 75% r.h.; details: crystallized after 8 days
Excerpt: The amorphous phosphate salt crystallized after 8 days on storage at a relative atmospheric humidity of 75% r.h. and formed form A.

[3] = Drying of form B of the phosphate salt in vacuo, physical form checked by X-ray powder diffractometry, thermal analysis and 1H NMR
Description: The form B was dried for 13 hours at 40° C. in vacuo.
The form B was dried for 24 hours at 40° C. in vacuo.
Form B was dried at 68° C. in a drying cabinet in vacuo for 3 days.

[4] = Storage at defined relative atmospheric humidity (approx. 75% or 95%, then approx. 4%) with thermogravimetric analysis, weighing and X-ray powder diffractometry; details: for % pt (middle) / % pt after: vs before storage; for Form middle / Form after: X-ray powder diffractometry
Excerpt: Storage of the hydrochloride salts, which are not according to the invention (identified H1 to H3 in the following examples of compounds; for the synthesis see the subsequent experimental part), at room temperature over saturated sodium chloride solution results in a relative atmospheric humidity of approx. 75% (±5%). Storage of the samples at room temperature over saturated potassium sulfate solution results in a relative atmospheric humidity of approx. 95% (±5%).
Storage of the samples at room temperature over drying beads (blau+, Engelhardt, Nienburg) results in a relative atmospheric humidity of approx. 4% (±5%).
The samples were stored at approx. 75% relative atmospheric humidity for approx. 8.5 days. The samples were then stored at a relative atmospheric humidity of approx. 4% for a further approx. 6 h.
They were analyzed for their loss in weight by means of thermogravimetric analyses (amount of sample approx. 5-20 mg, heating rate approx. 10 K/min, heating range from approx. 25° C. to approx. 240° C.).
The approximate difference in the moisture content (in percentage points; % pt) from after the storage to before the particular storage step is stated.
In addition, the percentage change in the total weight of the sample occurring in the respective storage step was determined by weighing (“laboratory”).
The crystalline form was determined by means of X-ray powder diffractometry.
The samples were stored at approx. 95% relative atmospheric humidity for approx. 8.5 days. The samples were then stored at a relative atmospheric humidity of approx. 4% for a further approx. 6 h.
The approximate difference in the moisture content (in percentage points; % pt) from after the storage to before the storage is stated.
The samples were stored at approx. 75% relative atmospheric humidity for approx. 7 days. The samples were then stored at a relative atmospheric humidity of approx. 4% for a further approx. 2.5 days.
The approximate difference in the moisture content (in percentage points; % pt) from after the storage step to before the storage is stated.
The samples were stored at approx. 95% relative atmospheric humidity for approx. 7 days. The samples were then stored at a relative atmospheric humidity of approx. 4% for a further approx. 7 days.
Storage of the phosphate salts I-P according to the invention, called samples in the following, at room temperature over saturated sodium chloride solution results in a relative atmospheric humidity of approx. 75 (±5) % . Storage of the samples at room temperature over saturated potassium sulfate solution results in a relative atmospheric humidity of approx. 95 (±5) %.
Storage of the samples at room temperature over drying beads (blau+, Engelhardt, Nienburg) results in a relative atmospheric humidity of approx. 4 (±5) %.
The samples were stored at approx. 75 (±5) % relative atmospheric humidity for approx. 8.5 days. The samples were then stored at a relative atmospheric humidity of approx. 4 (±5) % for a further approx. 6 h.
The samples were stored at approx. 95 (±5) % relative atmospheric humidity for approx. 8.5 days. The samples were then stored at a relative atmospheric humidity of approx. 4 (±5) % for a further approx. 6 h.
The samples were stored at approx. 75 (±5) % relative atmospheric humidity for approx. 7 days. The samples were then stored at a relative atmospheric humidity of approx. 4 (±5) % for a further approx. 20 h.
The samples were stored at approx. 95 (±5) % relative atmospheric humidity for approx. 7 days. The samples were then stored at a relative atmospheric humidity of approx. 4 (±5) % for a further approx. 20 h.
Sample P3 was kept in the laboratory for approx. 55 minutes under ambient conditions before the second storage step.
The interpretation of the specified data is explained again in more detail by the example of the data for P1 given in the preceding Table 8:
Storage of 1: • first storage step: 95% atmospheric humidity • second storage step: 4% atmospheric humidity […]

[5] = after approx. 75% r.h. approx. 7 days
[6] = after approx. 95% r.h. approx. 7 days
[7] = approx. 75% r.h. approx. 7 days, then approx. 4% approx. 2.5 days
[8] = approx. 95% r.h. approx. 7 days, then approx. 4% approx. 7 days

## COc1cccc([C@@]2(O)C[C@H](O)CC[C@@H]2CN(C)C)c1 (racemic) [amorphous phosphate salt of I, (1RS,3RS,6RS)-6-dimethylaminomethyl-1-(3-methoxyphenyl)-cyclohexane-1,3-diol]
[1]
  Relative atmospheric humidity at which the amorphous salt crystallized: 45 % r.h.
[2]
  Form formed on storage: form A

## COc1cccc([C@@]2(O)C[C@H](O)CC[C@@H]2CN(C)C)c1 (racemic) [form A, (1RS,3RS,6RS)-6-dimethylaminomethyl-1-(3-methoxyphenyl)-cyclohexane-1,3-diol]
[1]; desorption
  Stability of the hydrate formed during the desorption: remained stable during the desorption

## COc1cccc([C@@]2(O)C[C@H](O)CC[C@@H]2CN(C)C)c1 (racemic) [form B, (1RS,3RS,6RS)-6-dimethylaminomethyl-1-(3-methoxyphenyl)-cyclohexane-1,3-diol]
[3]; 68° C. in a drying cabinet in vacuo for 3 days
  Change in the physical form on drying: converted into amorphous material
[3]; 13 hours at 40° C. in vacuo
  Change in the physical form on drying: no changes in the physical form were observed
[3]; 24 hours at 40° C. in vacuo
  Change in the physical form on drying: no changes in the physical form were observed

## COc1cccc(C2(O)CC(O)CCC2CN(C)C)c1 (stereo not drawn) [Sample H3, 6-dimethylaminomethyl-1-(3-methoxyphenyl)-1,3-dihydroxy-cyclohexane]
[4]; [5]
  % pt (middle): −4.75 % pt
  Form middle: form B
[4]; [6]
  % pt (middle): −2.37 % pt
  Form middle: form B
[4]; [7]
  % pt after: 0.46 % pt
  Form after: form B
[4]; [8]
  % pt after: −0.49 % pt
  Form after: form B
[4]; storage step approx. 4% r.h. approx. 2.5 days, after 75% r.h. 7 days
  Laboratory/% (after): +3.68%
[4]; storage step approx. 4% r.h. approx. 7 days, after 95% r.h. 7 days
  Laboratory/% (after): −9.19%
[4]; storage step approx. 75% r.h. approx. 7 days
  Laboratory/% (middle): +0.02%
[4]; storage step approx. 95% r.h. approx. 7 days
  Laboratory/% (middle): +4.34%
